“Also recorded” adds a separate entry of the source. Like-named read-outs stand apart in the source and are kept apart here. Values belong to the compound of their own block, whether it stands above or below them.
What was measured:
[1] = room temperature; cited from earlier work
[2] = Skin permeation and delivery, Franz-type vertical diffusion cell; assay type: in vitro ADME, human; conditions: 0-8 hours
Description: Skin permeation was evaluated using a custom-fabricated Franz-type vertical diffusion cell (FDC). […] Fluid samples can be withdrawn for analysis from the receptor fluid. […] Membranes were defrosted, washed and subjected to visual inspection before use. Skin delivery and permeation studies were performed on six (6) replicates per Active formulation. A finite dose was applied to the surface of the skin under nonocclusive conditions. Dose volume was 10 μl (18 mg/cm^2). The dose was spread using a blunt glass rod. Receptor chambers were inserted in a dry block with an external magnetic stir bar drive that accommodated up to 15 Franz cells per block. […] Receptor well temperature was maintained at 32±0.5° C.; skin surface temperature was maintained at 30±1.0° C. Receptor wells were sampled at three time points, namely 8 hr, 24 hr and 48 hr; 300 μl was removed, loaded in a 96-well plate, and stored at 4-8° C. prior to analysis. Samples were analyzed within 5 days of collection. There was no further preparation of the samples prior to analysis. […] The membrane was […] […] Retention of the Actives in the epidermis and delivery of Actives to the dermis was measured by extracting the Active from each layer individually at twenty-four hours using dimethyl sulfoxide (DMSO). […] After the LC-MS or UV testing was complete, samples were analyzed using ChemStation software (Agilent).

Phase solubility studies = conditions: active with HPBCD; calculated using Eq. (1)
[3] = Solubility in water (statements); assay type: physicochemical
[4] = Stability studies (shelf life, visible changes); assay type: physicochemical
Description: The effects of HPBCD on the shelf life stability of each active agent is studied at pre-determined temperatures for 11 weeks. Real time stability is observed at −17° C., 5° C. and 25° C., and accelerated stability is observed at 40° C. For accelerated stability, one day at 40° C. is equivalent to one week, thus the data represents 77 weeks. […] The vials are then placed in a temperature-controlled oven or refrigerator/freezer. The compounds are checked daily and any visible changes are noted.

[5] = 25° C., Week 1, visible changes
[6] = 25° C., Week 2, visible changes
[7] = 25° C., Week 3, visible changes

Compound: OC[C@H]1O[C@@H]2O[C@H]3[C@H](O)[C@@H](O)[C@@H](O[C@H]4[C@H](O)[C@@H](O)[C@@H](O[C@H]5[C@H](O)[C@@H](O)[C@@H](O[C@H]6[C@H](O)[C@@H](O)[C@@H](O[C@H]7[C@H](O)[C@@H](O)[C@@H](O[C@H]8[C@H](O)[C@@H](O)[C@@H](O[C@H]1[C@H](O)[C@H]2O)O[C@@H]8CO)O[C@@H]7CO)O[C@@H]6CO)O[C@@H]5CO)O[C@@H]4CO)O[C@@H]3CO [β-Cyclodextrin]
solubility in water [1]: approximately 19 mg/mL

Compound: C=C(C)[C@@H]1CCC(C)=C[C@H]1c1c(O)cc(CCCCC)cc1O [CBD, Cannabidiol]
delivered dose, transdermal [2]: no amount of CBD was detected as penetrating through the skin
association constant (Kc) for complex formation (Phase solubility studies): 0.42247 M⁻¹
solubility in water [3]: completely insoluble in water; also recorded: poor water solubility
Stability of Actives at 25° C. [4, 5]: 0
Stability of Actives at 25° C. [4, 6]: 0
Stability of Actives at 25° C. [4, 7]: 0

Stability of Actives at 5° C. ([4]; 1 week): 0
Stability of Actives at 25° C. ([4]; 1 week): 0
Stability of Actives at 40° C. ([4]; 1 week): 0
Stability of Actives at −17 C. ([4]; 1 week): 0
Stability of Actives at 5° C. ([4]; 2 week): 0
Stability of Actives at 25° C. ([4]; 2 week): 0
Stability of Actives at 40° C. ([4]; 2 week): 0
Stability of Actives at −17 C. ([4]; 2 weeks): 0
Stability of Actives at 5° C. ([4]; 3 week): 0
Stability of Actives at 25° C. ([4]; 3 week): 0
Stability of Actives at 40° C. ([4]; 3 week): 0
Stability of Actives at −17 C. ([4]; 3 weeks): 0
Stability of Actives at 5° C. ([4]; 4 week): 0
Stability of Actives at 25° C. ([4]; 4 week): 0
Stability of Actives at 40° C. ([4]; 4 week): 0
Stability of Actives at −17 C. ([4]; 4 weeks): 0
Stability of Actives at 5° C. ([4]; 5 week): 0
Stability of Actives at 25° C. ([4]; 5 week): 0
Stability of Actives at 40° C. ([4]; 5 week): 0
Stability of Actives at −17 C. ([4]; 5 week): 0
Stability of Actives at 5° C. ([4]; 6 week): 0
Stability of Actives at 25° C. ([4]; 6 week): 0
Stability of Actives at 40° C. ([4]; 6 week): 0
Stability of Actives at −17 C. ([4]; 6 week): 0
Stability of Actives at 5° C. ([4]; 7 week): 0
Stability of Actives at 25° C. ([4]; 7 week): 0
Stability of Actives at 40° C. ([4]; 7 week): 0
Stability of Actives at −17 C. ([4]; 7 week): 0
Stability of Actives at 5° C. ([4]; 8 week): 0
Stability of Actives at 25° C. ([4]; 8 week): 0
Stability of Actives at 40° C. ([4]; 8 week): 0
Stability of Actives at −17 C. ([4]; 8 week): 0
Stability of Actives at 5° C. ([4]; 9 week): 0
Stability of Actives at 25° C. ([4]; 9 week): 0
Stability of Actives at 40° C. ([4]; 9 week): 0
Stability of Actives at −17 C. ([4]; 9 week): 0
Stability of Actives at 5° C. ([4]; 10 week): 0
Stability of Actives at 25° C. ([4]; 10 week): 0
Stability of Actives at 40° C. ([4]; 10 week): 0
Stability of Actives at −17 C. ([4]; 10 weeks): 0
Stability of Actives at 5° C. ([4]; 11 week): 0
Stability of Actives at 25° C. ([4]; 11 week): 0
Stability of Actives at 40° C. ([4]; 11 week): 0
Stability of Actives at −17 C. ([4]; 11 weeks): 0
Compound: COc1cc(CCC(=O)CC(=O)CCc2ccc(O)c(OC)c2)ccc1O [Tetrahydrocurcumin]

Stability of Actives at 5° C. ([4]; 5° C., Week 1, visible changes): 0
Stability of Actives at 5° C. ([4]; 5° C., Week 2, visible changes): 0
Stability of Actives at 5° C. ([4]; 5° C., Week 3, visible changes): 0
Stability of Actives at 5° C. ([4]; 5° C., Week 4, visible changes): 0
Stability of Actives at 5° C. ([4]; 5° C., Week 5, visible changes): 0
Stability of Actives at 5° C. ([4]; 5° C., Week 6, visible changes): 0
Stability of Actives at 5° C. ([4]; 5° C., Week 7, visible changes): 0
Stability of Actives at 5° C. ([4]; 5° C., Week 8, visible changes): 0
Stability of Actives at 5° C. ([4]; 5° C., Week 9, visible changes): 0
Stability of Actives at 5° C. ([4]; 5° C., Week 10, visible changes): 0
Stability of Actives at 5° C. ([4]; 5° C., Week 11, visible changes): 0
Stability of Actives at 25° C. [4, 5]: 0
Stability of Actives at 25° C. [4, 6]: 0
Stability of Actives at 25° C. [4, 7]: 0
Stability of Actives at 25° C. ([4]; 25° C., Week 4, visible changes): 0
Stability of Actives at 25° C. ([4]; 25° C., Week 5, visible changes): 0
Stability of Actives at 25° C. ([4]; 25° C., Week 6, visible changes): 0
Stability of Actives at 25° C. ([4]; 25° C., Week 7, visible changes): 0
Stability of Actives at 25° C. ([4]; 25° C., Week 8, visible changes): 0
Stability of Actives at 25° C. ([4]; 25° C., Week 9, visible changes): 0
Stability of Actives at 25° C. ([4]; 25° C., Week 10, visible changes): 0
Stability of Actives at 25° C. ([4]; 25° C., Week 11, visible changes): 0
Stability of Actives at 40° C. ([4]; 40° C. accelerated stability, Week 1, visible changes): 0
Stability of Actives at 40° C. ([4]; 40° C. accelerated stability, Week 2, visible changes): 0
Stability of Actives at 40° C. ([4]; 40° C. accelerated stability, Week 3, visible changes): 0
Stability of Actives at 40° C. ([4]; 40° C. accelerated stability, Week 4, visible changes): 0
Stability of Actives at 40° C. ([4]; 40° C. accelerated stability, Week 5, visible changes): 0
Stability of Actives at 40° C. ([4]; 40° C. accelerated stability, Week 6, visible changes): 0
Stability of Actives at 40° C. ([4]; 40° C. accelerated stability, Week 7, visible changes): 0
Stability of Actives at 40° C. ([4]; 40° C. accelerated stability, Week 8, visible changes): 0
Stability of Actives at 40° C. ([4]; 40° C. accelerated stability, Week 9, visible changes): 0
Stability of Actives at 40° C. ([4]; 40° C. accelerated stability, Week 10, visible changes): 0
Stability of Actives at 40° C. ([4]; 40° C. accelerated stability, Week 11, visible changes): 0
Compound: Nc1cc(N2CCCCC2)nc(N)[n+]1[O-] [Minoxidil]

Reference: US20200347153A1, “METHODS FOR FORMING INCLUSION COMPLEXES WITH HYDROPHILIC BETA-CYCLODEXTRIN DERIVATIVES AND COMPOSITIONS THEREOF” (priority 2019, published 2020)
